Measurements from the Deep4Chem optical property database.
Each block holds one molecule with its values, some of them ahead of it.

Assay: solvent given as SMILES

Compound: CCCCCCCCOc1ccc2c3cccc4c(OCCCCCCCC)ccc(c5cccc1c52)c43
fluorescence lifetime (in C1CCOC1): 3.88 ns
fluorescence lifetime (in Cc1ccccc1): 3.65 ns
fluorescence lifetime (in ClC(Cl)(Cl)Cl): 3.82 ns
fluorescence lifetime (in ClC(Cl)Cl): 3.77 ns
fluorescence lifetime (in ClCCl): 4.17 ns
fluorescence lifetime (in c1ccncc1): 4.01 ns

Compound: F[B-]1(F)OC(c2cc3c4c(c2)CCCN4CCC3)=Cc2cccc[n+]21
fluorescence lifetime (in ClC(Cl)Cl): 3.19 ns

Compound: CC(C)c1cc(C(C)C)c(B2c3ccccc3Oc3cc(N4c5ccccc5C5(c6ccccc6-c6ccccc65)c5ccccc54)ccc32)c(C(C)C)c1
fluorescence lifetime (in Cc1ccccc1): 28 ns

Compound: CCC1=C(C)C2=C(c3cc(C(=O)Cl)cc(C4=C5C(C)=C(CC)C(C)=[N+]5[B-](F)(F)n5c(C)c(CC)c(C)c54)c3)c3c(C)c(CC)c(C)n3[B-](F)(F)[N+]2=C1C
fluorescence lifetime (in CN(C)C=O): 4.1 ns

Compound: CC1(C)C(/C=C/C=C/C=C/C=C2/N(CCCCS(=O)(=O)[O-])c3ccc4ccccc4c3C2(C)C)=[N+](CCCCS(=O)(=O)[O-])c2ccc3ccccc3c21
fluorescence lifetime (in CC(C)=O): 0.87 ns
fluorescence lifetime (in CCO): 0.62 ns
fluorescence lifetime (in CO): 0.51 ns
fluorescence lifetime (in CS(C)=O): 0.97 ns
fluorescence lifetime (in ClC(Cl)Cl): 1.14 ns
fluorescence lifetime (in ClCCl): 0.91 ns
fluorescence lifetime (in O): 0.17 ns

Compound: CCCCCCC(CCCCCC)N1C(=O)c2cccc3c(-c4ccc(OC)c5ccccc45)ccc(c23)C1=O
fluorescence lifetime (in CCCCCC): 1.7 ns
fluorescence lifetime (in CCCCCCCCCCCCCC): 1.83 ns
fluorescence lifetime (in CCCCCCCCCCCO): 4.85 ns
fluorescence lifetime (in CCCCO): 1.8 ns
fluorescence lifetime (in CN(C)C=O): 3.85 ns
fluorescence lifetime (in Cc1ccccc1): 1.53 ns
fluorescence lifetime (in ClC(Cl)Cl): 4.07 ns

Compound: Cc1ccc(-c2sc(/C(C#N)=C/c3ccc(C#N)cc3)nc2-c2ccc(Cl)cc2)cc1
fluorescence lifetime (in CC#N): 3.02 ns

Compound: CCCC(=O)c1c2c(c(C(=O)CCC)c3c1OC(CC(=O)OC)(C(=O)OC)O3)OCO2
fluorescence lifetime (in CC#N): 22.5 ns
fluorescence lifetime (in CCCCCC): 18.5 ns
fluorescence lifetime (in CCO): 17.7 ns
fluorescence lifetime (in CO): 11.9 ns
fluorescence lifetime (in ClCCl): 25.1 ns

Compound: CCCCC(CC)COc1ccc2nc(-c3ccc(-c4c(C)noc4C)s3)sc2c1 (centres undefined)
fluorescence lifetime (in ClCCl): 1.8 ns

Compound: CCCCCCCCC1(CCCCCCCC)c2ccccc2-c2ccc(N(c3ccc(-n4c5ccccc5c5ccccc54)cc3)c3ccc4c(c3)C(CCCCCCCC)(CCCCCCCC)c3ccccc3-4)cc21
fluorescence lifetime (in C1CCOC1): 1.8 ns
fluorescence lifetime (in CC#N): 1.8 ns
fluorescence lifetime (in CC(C)=O): 1.75 ns
fluorescence lifetime (in CCCCCC): 1.68 ns
fluorescence lifetime (in CCCCOCCCC): 1.78 ns
fluorescence lifetime (in CCN(CC)CC): 1.69 ns
fluorescence lifetime (in CCOC(C)=O): 1.66 ns
fluorescence lifetime (in CCOCC): 1.97 ns
fluorescence lifetime (in CN(C)C=O): 1.87 ns
fluorescence lifetime (in Cc1ccccc1): 1.75 ns
fluorescence lifetime (in ClCCl): 1.62 ns

Compound: CCCCn1c(=O)c2cc3ccc4cccc5ccc(c2c1=O)c3c45
fluorescence lifetime (in ClC(Cl)Cl): 5.48 ns

Compound: Cc1ccc(-c2cc(-c3ccccc3Cl)c3c(N)nc(N4CCCC4)c(C#N)c3n2)cc1
fluorescence lifetime (in CC#N): 11.3 ns
fluorescence lifetime (in CC(C)=O): 11.1 ns
fluorescence lifetime (in CC(C)O): 11.3 ns
fluorescence lifetime (in CO): 9.7 ns
fluorescence lifetime (in ClC(Cl)Cl): 13.7 ns
fluorescence lifetime (in ClCCl): 13.7 ns
fluorescence lifetime (in c1ccccc1): 12.8 ns

Compound: COC(=O)c1ccc(C#Cc2ccc(N(C)C)cc2)cc1
fluorescence lifetime (in C1CCCCC1): 1.35 ns
fluorescence lifetime (in C1CCOC1): 2.43 ns
fluorescence lifetime (in C1COCCO1): 2.38 ns
fluorescence lifetime (in CC1CCCO1): 2.68 ns
fluorescence lifetime (in CC#N): 1.48 ns
fluorescence lifetime (in CC(C)=O): 1.51 ns
fluorescence lifetime (in CC(C)CC(C)(C)C): 0.73 ns
fluorescence lifetime (in CC(C)O): 1.32 ns
fluorescence lifetime (in CCCCCCCCCCCCCCCC): 0.75 ns
fluorescence lifetime (in CCCCCCCCCCCCCCCCCl): 0.92 ns
fluorescence lifetime (in CCOC(C)=O): 2.47 ns
fluorescence lifetime (in CCOCC): 0.959 ns
fluorescence lifetime (in CN(C)C=O): 1.7 ns
fluorescence lifetime (in CS(C)=O): 1.92 ns
fluorescence lifetime (in Cc1ccccc1): 0.9 ns

More lines, now with the values ahead:

fluorescence lifetime (in CC#N): 4.24 ns
Compound: N#C/C(=C\c1ccncc1)c1nc(-c2ccc(Cl)cc2)cs1

fluorescence lifetime (in ClC(Cl)Cl): 3.69 ns
Compound: CCc1cc(CC)cc(-n2c3ccccc3c3cc4c(cc32)c2ccccc2n4-c2cc(CC)cc(CC)c2)c1

fluorescence lifetime (in CS(C)=O): 0.05 ns
Compound: Cn1c(=O)c(/N=N/c2ccc(Nc3ccccc3)c(S(=O)(=O)O)c2)c(O)c2ccccc21

fluorescence lifetime (in C1COCCO1): 6.06 ns
fluorescence lifetime (in CO): 0.13 ns
fluorescence lifetime (in CS(C)=O): 0.12 ns
Compound: O=C1/C(=C2\Sc3ccc(S(=O)(=O)Nc4ccccc4)cc3C2=O)Sc2ccc(S(=O)(=O)Nc3ccccc3)cc21

fluorescence lifetime (in C1CCCCC1): 3.3 ns
fluorescence lifetime (in c1ccccc1): 0.79 ns
Compound: CN(C)c1ccc2c(c1)C(=O)c1ccccc1-2

fluorescence lifetime (in CC#N): 3.28 ns
Compound: C=Cc1cc2ccc(OC(=O)c3ccccc3)cc2oc1=O

fluorescence lifetime (in ClC(Cl)Cl): 0.706 ns
Compound: Cc1ccc(C2=Cc3c4ccccc4c4ccccc4[n+]3[B-](F)(F)O2)cc1

fluorescence lifetime (in ClC(Cl)Cl): 1.29 ns
Compound: F[B-]1(F)OC(c2ccccc2)=Cc2ccc3ccccc3[n+]21

fluorescence lifetime (in ClCCl): 2.75 ns
Compound: Oc1ccccc1-c1nc2c(c3c1-c1ccccc1CC3)-c1ccccc1CC2

fluorescence lifetime (in CS(C)=O): 8.85 ns
Compound: Cn1c2ccccc2c(=O)c2ccccc21

fluorescence lifetime (in C1CCOC1): 5.3 ns
Compound: c1ccc(-c2cnc3nn4ccccc4c3n2)cc1

fluorescence lifetime (in ClC(Cl)Cl): 2.9 ns
Compound: CCn1c2ccccc2c2cc3c(cc21)c1ccccc1n3CC
